Results from the supplement of paper PMC11619387.
Converted amounts (≈) assume the structure as drawn.

Tests used:
[1] = system: Pseudomonas aeruginosa PAO1-Xen41; test: EC50 of growth/kill rate concentration-effect curve
Method: (§1)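 Time-kill assays of bioluminescent P. aeruginosa PAO1-Xen41 (start ~5e6 CFU/mL) in 96-well plates at 37 °C, 150 rpm. Luminescence was read hourly for 20 h in cation-adjusted Mueller-Hinton broth, either non-conditioned (MH broth with or without supplements) or conditioned by one of 13 CF-associated species, then filter-sterilised and nutrient-replenished. Growth/kill rates came from log-linear regression of the exponential phase at 9-10 antibiotic concentrations, and Hill (Emax) models were fitted with drc for each replicate.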

[2] = system: Pseudomonas aeruginosa PAO1-Xen41; test: Hill coefficient of concentration-effect curve (unitless); higher = steeper concentration-effect curve
Method: as §1

[3] = system: Pseudomonas aeruginosa PAO1-Xen41; test: Emax, maximal drug effect on net growth rate (fitted lower asymptote) (per hour (slope of log luminescence)); higher = weaker maximal killing (less negative)
Method: as §1

CCC(C)CCCC(=O)N[C@@H](CCN)C(=O)N[C@H](C(=O)N[C@@H](CCN)C(=O)N[C@H]1CCNC(=O)[C@H]([C@@H](C)O)NC(=O)[C@H](CCN)NC(=O)[C@H](CCN)NC(=O)[C@H](CC(C)C)NC(=O)[C@@H](CC(C)C)NC(=O)[C@H](CCN)NC1=O)[C@@H](C)O (some centres undefined) [colistin]
Settings	EC50, [1] [mg/L]	Emax, [3]	Hill coefficient, [2]
medium (conditioned by secondary species or non-conditioned control): A. baumannii	3.78 (≈ 3.27 µM)	-0.97093	5.23
medium (conditioned by secondary species or non-conditioned control): A. fumigatus	4 (≈ 3.47 µM)	-1.07	0.809
medium (conditioned by secondary species or non-conditioned control): A. xylosoxidans	3.71 (≈ 3.21 µM)	-0.971	4.77
medium (conditioned by secondary species or non-conditioned control): B. cepacia	2.64 (≈ 2.28 µM)	-1.015	1.13
medium (conditioned by secondary species or non-conditioned control): C. albicans	1.65 (≈ 1.43 µM)	-0.9963	1.39
medium (conditioned by secondary species or non-conditioned control): H. influenzae	0.634 (≈ 0.549 µM)	-0.1151	7.12
medium (conditioned by secondary species or non-conditioned control): M. abcessus	1.56 (≈ 1.35 µM)	-0.976	2.24
medium (conditioned by secondary species or non-conditioned control): M. avium	1.04 (≈ 0.899 µM)	-0.954	1.72
medium (conditioned by secondary species or non-conditioned control): M. catarrhalis	0.325 (≈ 0.282 µM)	-0.139	14.6
medium (conditioned by secondary species or non-conditioned control): MH broth	1.45 (≈ 1.26 µM)	-0.963	2.54
medium (conditioned by secondary species or non-conditioned control): MH broth + ADC	0.607	-0.901	11.8
medium (conditioned by secondary species or non-conditioned control): MH broth + LHB + NAD	0.324	-0.156	12.4
medium (conditioned by secondary species or non-conditioned control): MH broth + glucose	1.22	-0.9802	2.92
medium (conditioned by secondary species or non-conditioned control): R. mannitolilytica	1.32 (≈ 1.14 µM)	-0.958	1.77
medium (conditioned by secondary species or non-conditioned control): S. aureus	1.08 (≈ 0.939 µM)	-0.966	2.47
medium (conditioned by secondary species or non-conditioned control): S. maltophilia	3.83 (≈ 3.31 µM)	-0.97063	7.36
medium (conditioned by secondary species or non-conditioned control): S. pneumoniae	0.325 (≈ 0.281 µM)	-0.117	7.9

C[C@@H](O)[C@H]1C(=O)N2C(C(=O)O)=C(S[C@@H]3CN[C@H](C(=O)N(C)C)C3)[C@H](C)[C@H]12 [meropenem]
Settings	EC50, [1] [mg/L]	Emax, [3]	Hill coefficient, [2]
medium (conditioned by secondary species or non-conditioned control): A. baumannii	2.68 (≈ 6.99 µM)	-0.0771	6.64
medium (conditioned by secondary species or non-conditioned control): A. fumigatus	0.389 (≈ 1.01 µM)	-0.093	7.42
medium (conditioned by secondary species or non-conditioned control): A. xylosoxidans	1.25 (≈ 3.26 µM)	-0.0831	4.28
medium (conditioned by secondary species or non-conditioned control): B. cepacia	0.916 (≈ 2.39 µM)	-0.0593	12.1
medium (conditioned by secondary species or non-conditioned control): C. albicans	0.784 (≈ 2.04 µM)	-0.12	3.15
medium (conditioned by secondary species or non-conditioned control): H. influenzae	0.6259 (≈ 1.63 µM)	-0.172	2.15
medium (conditioned by secondary species or non-conditioned control): M. abcessus	0.609 (≈ 1.59 µM)	-0.0816	5.75
medium (conditioned by secondary species or non-conditioned control): M. avium	0.337 (≈ 0.878 µM)	-0.0509	7.81
medium (conditioned by secondary species or non-conditioned control): M. catarrhalis	1.91 (≈ 4.99 µM)	-0.0746	6.15
medium (conditioned by secondary species or non-conditioned control): MH broth	0.612 (≈ 1.6 µM)	-0.0947	4.27
medium (conditioned by secondary species or non-conditioned control): MH broth + ADC	0.2684	-0.0675	15.3
medium (conditioned by secondary species or non-conditioned control): MH broth + LHB + NAD	0.663	-0.125	3.73
medium (conditioned by secondary species or non-conditioned control): MH broth + glucose	0.628	-0.0923	3
medium (conditioned by secondary species or non-conditioned control): R. mannitolilytica	0.6203 (≈ 1.62 µM)	-0.0818	8.16
medium (conditioned by secondary species or non-conditioned control): S. aureus	0.7071 (≈ 1.84 µM)	-0.0714	10
medium (conditioned by secondary species or non-conditioned control): S. maltophilia	1.18 (≈ 3.07 µM)	-0.0918	3.29
medium (conditioned by secondary species or non-conditioned control): S. pneumoniae	0.938 (≈ 2.45 µM)	-0.189	4.34

NC[C@H]1O[C@H](O[C@H]2[C@H](O)[C@@H](O[C@H]3O[C@H](CO)[C@@H](O)[C@H](N)[C@H]3O)[C@H](N)C[C@@H]2N)[C@H](N)C[C@@H]1O [tobramycin]
Settings	EC50, [1] [mg/L]	Emax, [3]	Hill coefficient, [2]
medium (conditioned by secondary species or non-conditioned control): A. baumannii	0.257 (≈ 0.55 µM)	-0.121	16.7
medium (conditioned by secondary species or non-conditioned control): A. fumigatus	0.7033 (≈ 1.5 µM)	-0.188	4.28
medium (conditioned by secondary species or non-conditioned control): A. xylosoxidans	0.2759 (≈ 0.59 µM)	-0.157	14.8
medium (conditioned by secondary species or non-conditioned control): B. cepacia	0.144 (≈ 0.308 µM)	-0.131	10.6
medium (conditioned by secondary species or non-conditioned control): C. albicans	0.565 (≈ 1.21 µM)	-0.214	3.52
medium (conditioned by secondary species or non-conditioned control): H. influenzae	0.185 (≈ 0.397 µM)	-0.126	14.4
medium (conditioned by secondary species or non-conditioned control): M. abcessus	0.135 (≈ 0.288 µM)	-0.095	4.76
medium (conditioned by secondary species or non-conditioned control): M. avium	0.201 (≈ 0.429 µM)	-0.17	9.2
medium (conditioned by secondary species or non-conditioned control): M. catarrhalis	0.145 (≈ 0.31 µM)	-0.134	9.95
medium (conditioned by secondary species or non-conditioned control): MH broth	0.136 (≈ 0.29 µM)	-0.122	5.72
medium (conditioned by secondary species or non-conditioned control): MH broth + ADC	0.197	-0.172	11.3
medium (conditioned by secondary species or non-conditioned control): MH broth + LHB + NAD	0.138	-0.116	10.7
medium (conditioned by secondary species or non-conditioned control): MH broth + glucose	0.393	-0.21	3.39
medium (conditioned by secondary species or non-conditioned control): R. mannitolilytica	0.0784 (≈ 0.168 µM)	-0.107	8.12
medium (conditioned by secondary species or non-conditioned control): S. aureus	0.0695 (≈ 0.149 µM)	-0.121	10
medium (conditioned by secondary species or non-conditioned control): S. maltophilia	0.137 (≈ 0.293 µM)	-0.197	6.76
medium (conditioned by secondary species or non-conditioned control): S. pneumoniae	0.471 (≈ 1.01 µM)	-0.128	12.4

CC(C)(O/N=C(\C(=O)N[C@@H]1C(=O)N2C(C(=O)[O-])=C(C[n+]3ccccc3)CS[C@H]12)c1csc(N)n1)C(=O)O [ceftazidime]
Settings	EC50, [1] [mg/L]	Emax, [3]	Hill coefficient, [2]
medium (conditioned by secondary species or non-conditioned control): A. baumannii	1.62 (≈ 2.96 µM)	-0.122	2.12
medium (conditioned by secondary species or non-conditioned control): A. fumigatus	2.05 (≈ 3.75 µM)	-0.109	3.33
medium (conditioned by secondary species or non-conditioned control): A. xylosoxidans	1.6 (≈ 2.92 µM)	-0.132	2.19
medium (conditioned by secondary species or non-conditioned control): B. cepacia	1.15 (≈ 2.11 µM)	-0.138	2.53
medium (conditioned by secondary species or non-conditioned control): C. albicans	2.02 (≈ 3.69 µM)	-0.126	3.16
medium (conditioned by secondary species or non-conditioned control): H. influenzae	1.86 (≈ 3.41 µM)	-0.223	2.268
medium (conditioned by secondary species or non-conditioned control): M. abcessus	1.17 (≈ 2.15 µM)	-0.0538	3.08
medium (conditioned by secondary species or non-conditioned control): M. avium	1.19 (≈ 2.19 µM)	-0.0876	3.59
medium (conditioned by secondary species or non-conditioned control): M. catarrhalis	1.12 (≈ 2.05 µM)	-0.166	3.76
medium (conditioned by secondary species or non-conditioned control): MH broth	1.28 (≈ 2.33 µM)	-0.0573	3
medium (conditioned by secondary species or non-conditioned control): MH broth + ADC	1.27	-0.0561	3.55
medium (conditioned by secondary species or non-conditioned control): MH broth + LHB + NAD	0.743	-0.133	5.89
medium (conditioned by secondary species or non-conditioned control): MH broth + glucose	1.71	-0.0864	2.61
medium (conditioned by secondary species or non-conditioned control): R. mannitolilytica	1.067 (≈ 1.95 µM)	-0.0734	3.02
medium (conditioned by secondary species or non-conditioned control): S. aureus	1.12 (≈ 2.05 µM)	-0.069	3.04
medium (conditioned by secondary species or non-conditioned control): S. maltophilia	0.702 (≈ 1.28 µM)	-0.139	3.32
medium (conditioned by secondary species or non-conditioned control): S. pneumoniae	1.71 (≈ 3.12 µM)	-0.159	3.31
